# Laboratory results reported in patent US9776972B2, “Pyrazole derivatives as arginine methyltransferase inhibitors and uses thereof” (priority 2013, dated 2017).
# Like-named read-outs stand apart in the source and are kept apart here.
# Legend:
# human PRMT6 = molecular target: T1, human PRMT6 (Homo sapiens, UniProt Q96LA8); assay: PRMT6 Biochemical Assay (3H-SAM Flashplate, peptide substrate)
# T1 construct: Flag-PRMT6-His; made in house; host or cells: HEK 293F cells (BacMam baculovirus)
# Text: (§1) S-adenosylmethionine (SAM), S-adenosylhomocysteine (SAH), bicine, Tween20, dimethylsulfoxide (DMSO), bovine skin gelatin (BSG), sodium butyrate and Tris(2-carboxyethyl)phosphine hydrochloride solution (TCEP) were purchased from Sigma-Aldrich at the highest level of purity possible. ^3H-SAM was purchase from American Radiolabeled Chemicals with a specific activity of 80 Ci/mmol. 384-well streptavidin Flashplates were purchased from PerkinElmer.
# Peptide representative of human histone H4 residues 36-50 was synthesized with an N-terminal linker-affinity tag motif and a C-terminal amide cap by 21st Century Biochemicals.
# The amplified gene was subcloned into pFastBacMam (Viva Biotech).
# Recombinant baculovirus were generated according to Bac-to-Bac kit instructions (Life Technologies). […] Infections were carried out at 37° C. for 48 hours, harvested by centrifugation, and stored at −80° C. for purification.
# Column was washed with 20 mM imidazole in the same buffer and Flag-PRMT6-His was eluted with 150 mM imidazole. […] Flag-PRMT6-His was eluted with 200 ug/ml FLAG peptide in the same buffer. Pooled fractions were dialysed in 20 mM Tris, 150 mM NaCl, 10% glycerol and 5 mM β-mercaptoethanol, pH 7.8.
# General Procedure for PRMT6 Enzyme Assays on Peptide Substrates.
# (§2) The assays were all performed in a buffer consisting of 20 mM Bicine (pH=7.6), 1 mM TCEP, 0.005% BSG, and 0.002% Tween 20, prepared on the day of use. […] DMSO (1 ul) was added to Columns 11, 12, 23, 24, rows A-H for the maximum signal control and 1 ul of SAH, a known product and inhibitor of PRMT6, was added to columns 11, 12, 23, 24, rows I-P for the minimum signal control. A cocktail (40 ul) containing the PRMT6 enzyme was added by Multidrop Combi (Thermo-Fisher). The compounds were allowed to incubate with PRMT6 for 30 min at room temperature, then a cocktail (10 ul) containing SAM and peptide was added to initiate the reaction (final volume=51 ul). […] The assays were stopped by the addition of non-radiolabeled SAM (10 ul) to a final concentration of 400 uM, which dilutes the ^3H-SAM to a level where its incorporation into the peptide substrate is no longer detectable. 50 ul of the reaction in the 384-well polypropylene plate was then transferred to a 384-well Flashplate and the biotinylated peptides were allowed to bind to the streptavidin surface for at least 1 hour before being washed once with 0.1% Tween20 in a Biotek ELx405 plate washer. The plates were then read in a PerkinElmer TopCount plate reader to measure the quantity of ^3H-labeled peptide bound to the Flashplate surface, measured as disintegrations per minute (dpm) or alternatively, referred to as counts per minute (cpm).
# (§3) Where dpm=disintegrations per minute, cmpd=signal in assay well, and min and max are the respective minimum and maximum signal controls.
# (§4) Where top and bottom are the normally allowed to float, but may be fixed at 100 or 0 respectively in a 3-parameter fit. The Hill Coefficient normally allowed to float but may also be fixed at 1 in a 3-parameter fit. Y is the % inhibition and X is the compound concentration.
# [1] = tested on: mono-methyl arginine in RKO cells; assay: RKO Methylation Assay, In Cell Western (ICW) for mono-methyl arginine and DNA content; assay type: cell-based; details: Homo sapiens, RKO, 72 h
# Text: RKO adherent cells were purchased from ATCC (American Type Culture Collection), Manassas, Va., USA. DMEM/Glutamax medium, penicillin-streptomycin, heat inactivated fetal bovine serum, 0.05% trypsin and D-PBS were purchased from Life Technologies, Grand Island, N.Y., USA. Odyssey blocking buffer, 800CW goat anti-rabbit IgG (H+L) antibody, and Licor Odyssey infrared scanner were purchased from Licor Biosciences, Lincoln, Nebr., USA. Mono-methyl arginine antibody was purchased from Cell Signaling Technology, Danvers, Mass., USA. Methanol was purchased from VWR, Franklin, Mass., USA. 10% Tween 20 was purchased from KPL, Inc., Gaithersburg, Md., USA. DRAQ5 was purchased from Biostatus Limited, Leicestershire, UK.
# RKO adherent cells were maintained in growth medium (DMEM/Glutamax medium supplemented with 10% v/v heat inactivated fetal bovine serum and 100 units/mL penicillin-streptomycin) and cultured at 37° C. under 5% CO2.
# Cell Treatment, in Cell Western (ICW) for Detection of Mono-Methyl Arginine and DNA Content.
# RKO cells were seeded in assay medium at a concentration of 20,000 cells per mL to a poly-D-lysine coated 384 well culture plate (BD Biosciences 356697) with 50 μL per well. Compound (100 nL) from a 96-well source plate was added directly to 384 well cell plate. Plates were incubated at 37° C., 5% CO2 for 72 hours. After three days of incubation, plates were brought to room temperature outside of the incubator for ten minutes and blotted on paper towels to remove cell media. 50 μL of ice cold 100% methanol was added directly to each well and incubated for 30 min at room temperature. After 30 min, plates were transferred to a Biotek EL406 plate washer and washed 2 times with 100 μL per well of wash buffer (1×PBS). Next 60 μL per well of Odyssey blocking buffer (Odyssey Buffer with 0.1% Tween 20 (v/v)) were added to each plate and incubated 1 hour at room temperature. Blocking buffer was removed and 20 μL per well of primary antibody was added (mono-methyl arginine diluted 1:200 in Odyssey buffer with 0.1% Tween 20 (v/v)) and plates were incubated overnight (16 hours) at 4° C. Plates were washed 5 times with 100 μL per well of wash buffer. Next 20 μL per well of secondary antibody was added (1:200 800CW goat anti-rabbit IgG (H+L) antibody, 1:1000 DRAQ5 (Biostatus limited) in Odyssey buffer with 0.1% Tween 20 (v/v)) and incubated for 1 hour at room temperature. The plates were washed 5 times with 100 μL per well wash buffer then 2 times with 100 μL per well of water. Plates were allowed to dry at room temperature then imaged on the Licor Odyssey machine which measures integrated intensity at 700 nm and 800 nm wavelengths. Both 700 and 800 channels were scanned.
# First, the ratio for each well was determined by:
# Each plate included fourteen control wells of DMSO only treatment (minimum activation) as well as fourteen control wells for maximum activation treated with 20 μM of a reference compound. The average of the ratio values for each control type was calculated and used to determine the percent activation for each test well in the plate. Reference compound was serially diluted three-fold in DMSO for a total of nine test concentrations, beginning at 20 μM. Percent activation was determined and EC30 curves were generated using triplicate wells per concentration of compound.
# human PRMT1 = molecular target: T2, human PRMT1 (Homo sapiens, UniProt Q99873); assay: PRMT1 Biochemical Assay (3H-SAM Flashplate, peptide substrate); details: single experiment or average of multiple experiments
# T2 construct: GST-tagged PRMT1; made in house; host or cells: High Five insect cells (baculovirus)
# Text: as §1, with “(BSG),” for “(BSG), sodium butyrate”
# Recombinant baculovirus were generated according to Bac-to-Bac kit instructions (Life Technologies). […] Infections were carried out at 27° C. for 48 hours, harvested by centrifugation, and stored at −80° C. for purification.
# GST-tagged PRMT1 was eluted with 50 mM Tris, 2 mM glutathione, pH 7.8, dialysed in buffer A and concentrated to 1 mg/mL.
# General Procedure for PRMT1 Enzyme Assays on Peptide Substrates.
# as §2, with “PRMT1,” for “PRMT6,”, “PRMT1” for “PRMT6”, “300” for “400”
# as §3, §4
# [2] = Biochemical IC50 PRMT6, single experiment or average of multiple experiments
# [3] = RKO cells, 72 hours, mono-methyl arginine, percent activation, single experiment or average of multiple experiments, read-out: EC30 (In Cell Western data, Numerical)
# [4] = single experiment or average of multiple experiments, read-out: Biochemical IC50 PRMT6
# [5] = RKO cells, 72 hours, mono-methyl arginine, percent activation, class symbols, read-out: EC30 (In Cell Western data)
# T2 sequence (Q99873 with tags, fused parts or gaps): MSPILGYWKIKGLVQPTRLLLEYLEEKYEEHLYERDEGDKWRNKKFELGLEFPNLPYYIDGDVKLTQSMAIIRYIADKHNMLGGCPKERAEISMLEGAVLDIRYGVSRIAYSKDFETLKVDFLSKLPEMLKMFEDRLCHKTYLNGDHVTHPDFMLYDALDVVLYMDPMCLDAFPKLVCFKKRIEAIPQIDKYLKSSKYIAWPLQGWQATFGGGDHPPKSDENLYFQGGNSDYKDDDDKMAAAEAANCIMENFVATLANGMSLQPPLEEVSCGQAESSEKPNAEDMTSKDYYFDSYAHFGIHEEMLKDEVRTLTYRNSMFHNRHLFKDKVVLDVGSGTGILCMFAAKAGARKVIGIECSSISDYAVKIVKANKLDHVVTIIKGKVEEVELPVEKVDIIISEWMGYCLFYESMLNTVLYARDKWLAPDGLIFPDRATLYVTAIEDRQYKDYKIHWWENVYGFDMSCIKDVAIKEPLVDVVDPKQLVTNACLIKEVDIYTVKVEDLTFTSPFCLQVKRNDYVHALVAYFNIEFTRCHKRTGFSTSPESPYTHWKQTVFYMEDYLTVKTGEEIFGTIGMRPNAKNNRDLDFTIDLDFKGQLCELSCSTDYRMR
# T1 sequence (Q96LA8 with tags, fused parts or gaps): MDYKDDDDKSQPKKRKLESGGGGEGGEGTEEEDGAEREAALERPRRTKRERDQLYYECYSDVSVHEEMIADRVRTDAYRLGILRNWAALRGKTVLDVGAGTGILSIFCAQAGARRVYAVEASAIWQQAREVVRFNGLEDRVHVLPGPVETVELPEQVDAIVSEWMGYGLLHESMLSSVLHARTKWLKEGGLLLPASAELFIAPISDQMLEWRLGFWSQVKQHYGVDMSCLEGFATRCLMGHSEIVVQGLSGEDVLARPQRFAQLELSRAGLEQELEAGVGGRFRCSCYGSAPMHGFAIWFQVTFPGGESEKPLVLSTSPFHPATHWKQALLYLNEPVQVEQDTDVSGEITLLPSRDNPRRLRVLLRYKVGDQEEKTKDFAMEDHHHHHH
SMILES,IC50 (human PRMT6; [2]),"EC30 [1, 3]",IC50 (human PRMT6; Biochemical IC50 PRMT6),further results
"CNCCN(C)Cc1c[nH]nc1-c1ccc(OC(C)C)cc1 [Compound 19, N^1-((3-(4-isopropoxyphenyl)-1H-pyrazol-4-yl)methyl)-N^1,N^2-dimethylethane-1,2-diamine]",10.6 nM,0.067 µM,–,–
COCCn1cc(CN(C)CCN(C)C)c(-c2ccc(F)cc2)n1 [Compound 61],> 10000 nM,–,> 10000 nM,–
COCCn1ncc(CN(C)CCN(C)C)c1-c1ccc(F)cc1 [Compound 64],1570 nM,–,–,–
CN(CCN)Cc1cn(CC(O)CO)nc1-c1ccc(F)cc1 (stereo not drawn) [Compound 76],2730 nM,–,–,IC50 (human PRMT1): 6390 nM
CN(CCN)Cc1cn(CC2COC2)nc1-c1ccc(F)cc1 [Compound 79],> 10000 nM,> 20 µM,> 10000 nM,–
CN(CCN)Cc1cnn(CC2COC2)c1-c1ccc(F)cc1 [Compound 80],> 10000 nM,> 20 µM,> 10000 nM,–
CN(CCN)Cc1c(-c2ccc(C#N)cc2)cnn1C [Compound 84],> 10000 nM,–,> 10000 nM,–
CN(CCN)Cc1cn(CC2CCOCC2)nc1-c1ccc(F)cc1 [Compound 128],2370 nM,–,–,IC50 (human PRMT1): 6500 nM
CN(CCN1CCCC1)Cc1c[nH]nc1-c1ccc(C#N)cc1 [Compound 139],> 10000 nM,> 20 µM,> 10000 nM,–
CN(CCN)Cc1c[nH]nc1-c1ccc(OCCCN2CCOCC2)cc1 [Compound 186],13.3 nM,12.8 µM,–,–
CN(CCN)Cc1c[nH]nc1-c1ccc(N2CCN(C(=O)Cc3ccccc3)CC2)cc1 [Compound 190],–,8.39 µM,–,IC50 (human PRMT6; [4]): 20.1 nM
CN(CCN)Cc1c[nH]nc1-c1ccc(Oc2ccccc2)cc1 [Compound 200],–,0.596 µM,–,–
CNCCN(C)Cc1cn[nH]c1-c1ccc(OC(C)C)c(Cl)c1 [Compound 201],9.24 nM,0.255 µM,–,–
"CNCCN(C)Cc1cnn(C)c1-c1ccc(OC(C)C)c(Cl)c1 [Compound 220, N^1-((5-(3-chloro-4-isopropoxyphenyl)-1-methyl-1H-pyrazol-4-yl)methyl)-N^1,N^2-dimethylethane-1,2-diamine]",–,0.211 µM,–,IC50 (human PRMT6; [4]): 23.1 nM
COCCn1cnc(-c2ccc(C#N)cc2)c1CN(C)CCN [Compound 223],> 10000 nM,> 20 µM,> 10000 nM,–
CNCCN(C)Cc1c[nH]nc1-c1ccc(Oc2ccccc2)c(C#N)c1 [Compound 234],4.74 nM,–,–,IC50 (human PRMT1): 7.75 nM
CNCCN(C)Cc1c[nH]nc1-c1ccc(Oc2cccc(C(=O)NC)c2)cc1 [Compound 263],1.92 nM,–,–,"IC50 (human PRMT1): 4.35 nM; EC30 ([1]; read-out: EC30 (In Cell Western data, Numerical, μM)): 1.29 µM"
CNCCN(C)Cc1c[nH]nc1-c1ccc(Oc2cccc(C(=O)N(C)C)c2)cc1 [Compound 264],3.18 nM,3.52 µM,–,–
CNCCN(C)Cc1n[nH]cc1-c1ccc(Oc2cccc(C(=O)N(C)C)c2)cc1 [Compound 269],2.73 nM,14.9 µM,–,–
CNCCN(C)Cc1n[nH]cc1-c1ccc(Oc2ccccc2C(=O)NC)cc1 [Compound 278],5.17 nM,8.23 µM,–,–
CCC(CO)Oc1ccc(-c2n[nH]cc2CN(C)CCNC)cc1 (stereo not drawn) [Compound 287],–,0.202 µM,< 100 nM,"IC50 (human PRMT6; [4]): 24.8 nM; EC30 [1, 5]: < 3 µM"
CCOc1ccc(-c2n[nH]cc2CN(C)CCNC)cc1 [Compound 294],24.6 nM,0.224 µM,< 100 nM,"EC30 [1, 5]: < 3 µM"
